{"source": "paper PMC9898191", "about": "(Nature chemical biology, 2022)", "key": {"[1]": {"target": "Syk in MV4-11 cells (Homo sapiens, UniProt P43405)", "test": "WC36B-streptavidin pull down assay with immunoblotting", "format": "binding"}, "[2]": {"tested_on": "PM translocation of EGFP-Syk WT in Syk−/− DT40 cells", "test": "Subcellular localization of EGFP-Syk WT in IgM-stimulated Syk-null DT40 cells", "format": "cell-based", "conditions": "10 nM overnight"}, "[3]": {"tested_on": "WC36B-binding cellular proteins of MV4-11 cells", "test": "Mass spectrometry-based proteomics of WC36B-binding cellular proteins", "set-up": "species or system human", "conditions": "biotin as negative control"}, "[4]": {"tested_on": "phosphorylation of Syk, ERK1/2 and STAT3/5 in entospletinib-resistant MV4-11 cells", "conditions": "5 μM"}, "[5]": {"tested_on": "ZAP-70 phosphorylation in Jurkat T cells", "test": "Western blot of ZAP-70 phosphorylation in Jurkat T cells", "format": "cell-based", "conditions": "5 μM overnight, OKT3 stimulated"}, "[6]": {"tested_on": "phosphorylation of ERK1/2 and STAT3/5 in RAS-mutated HL60 cells", "test": "Western blot of IgG2-stimulated phosphorylation in HL-60 cells", "format": "cell-based", "conditions": "5 μM"}, "[7]": {"tested_on": "HL60 cells", "test": "XTT cell proliferation assay, HL-60 cells", "format": "cell-based"}}}
{"smiles": "Nc1ncnc2c1ncn2[C@@H]1O[C@H](COP(=O)(O)OP(=O)(O)OP(=O)(O)O)[C@@H](O)[C@H]1O", "note": "[ATP]", "values": [{"measurement": "competition with WC36B for Syk binding", "setting": "[1]; WC36 10 μM, entospletinib 10 μM, ATP 1 mM", "result": "only WC36 was able to compete"}]}
{"smiles": "CS(=O)(=O)N1CCN(Cc2cc3nc(-c4cccc5[nH]ncc45)nc(N4CCOCC4)c3s2)CC1", "note": "[GDC-0941]", "values": [{"measurement": "PM translocation of EGFP-Syk WT", "setting": "[2]", "result": "greatly suppressed"}]}
{"smiles": "[N-]=[N+]=C(C(=O)NCCNC(=O)CCCC[C@H]1SC[C@H]2NC(=O)N[C@H]21)C(Nc1ncccn1)c1c[nH]c2ccccc12", "note": "(some centres unmarked) [WC36B]", "values": [{"measurement": "proteins captured compared with biotin control", "setting": "[3]", "result": "Syk is the single major protein"}, {"measurement": "capture of Syk by streptavidin beads pulldown", "setting": "[1]; MV4-11 cells, 5 μM, 24 h", "result": "targets Syk"}]}
{"smiles": "c1cn2cc(-c3ccc4cn[nH]c4c3)nc(Nc3ccc(N4CCOCC4)cc3)c2n1", "note": "[entospletinib]", "values": [{"measurement": "inhibition of phosphorylation of Syk, ERK1/2 and STAT3/5", "setting": "[4]", "result": "could not inhibit phosphorylation"}, {"measurement": "inhibition of ZAP-70 phosphorylation", "setting": "[5]", "result": "significantly inhibited"}, {"measurement": "suppression of phosphorylation of ERK1/2 and STAT3/5", "setting": "[6]", "result": "could not suppress phosphorylation"}, {"measurement": "suppression of proliferation (XTT assay)", "setting": "[7]", "result": "ineffective"}]}
